Data from the NIST ThermoML archive (doi:10.1016/j.jct.2018.04.007).
± gives the expanded uncertainty stated by the source.

Legend:
[1] = wn = mass fraction of the nth substance listed; conditions: 96.2 kPa, Liquid, w1 = 0.3; for viscosity: Cone and plate viscometry; for mass density: Pycnometric method; for thermal conductivity: transient hot wire
[2] = molar heat capacity at constant pressure; wn = mass fraction of the nth substance listed; conditions: 96.2 kPa, Liquid, DSC, w1 = 0.3

CC(O)CO (stereo unspecified) [1,2-propanediol] + O
Conditions	mass density, [1] [kg/m3]	molar heat capacity at constant pressure, [2] [J/K/mol]	thermal conductivity, [1] [W/m/K]	viscosity, [1] [mPa·s]
293.15 K	1023.1 ± 1.1	89.44 ± 4.1	0.443 ± 0.013	3.02 ± 0.09
303.15 K	1019.2 ± 1.1	90 ± 4.2	0.454 ± 0.014	2.2 ± 0.07
313.15 K	1014.5 ± 1.1	90.52 ± 4.2	0.463 ± 0.014	1.61 ± 0.05
323.15 K	1009 ± 1.1	91.03 ± 4.2	0.472 ± 0.014	1.31 ± 0.04
